Data from patent US20100144626A1, “Treatment of Multi-Drug Resistant Bacterial Infections” (priority 2006, published 2010).
≈ marks a conversion by molar mass, not a printed value. Like-named read-outs stand apart in the source and are kept apart here.

Experiments:
Format in all cases: cell-based
[1] = system: Acinetobacter Baumannii ATCC 19606; assay: MIC, agar dilution (BSAC guidelines)
Method: (§1) In example experiments miconazole nitrate, was dissolved in methanol and econazole nitrate and clotrimazole were dissolved in DMSO and methanol respectively. Other solvents that may be used include caster oil, pyridine, DMSO and 0.9% saline. For IV administration agents may be solubilised in polyethoxylated caster oil, or cyclodextrins such as sulfobutylether7-βcyclodextrin or hydroxypropyl-β-cyclodextrin and lactic acid. Minimum inhibitory concentrations (MICs) of a range of clinical and control bacterial organisms were measured according to BSAC (British Society for Antimicrobial Chemotherapy) guidelines, described briefly as follows;
(§2) Preparation of Agar Plates and Broths
(§3) Stock solutions of each agent were prepared using the formula:
(§4) Where P=μg of active compound per mg (μg/mg) • V=volume required (mL) • C=final concentration of solution (mg/L) • W=weight of agent (mg) to be dissolved in volume V (mL)
(§5) Stock solutions were prepared at concentrations of 1000 mg/L and 100 mg/L. The appropriate amounts of each stock solution were added to separate Petri dishes give the following final concentrations (after the addition of 20 mL molten agar): 128, 64, 32, 16, 8, 4, 2, 1, 0.5, 0.25, 0.12, 0.06, 0.03, 0.015 mg/L.
(§6) Volumes (20 mL) of cooled molten IST agar (oxoid) was added to each Petri dish and mixed by swirling.
(§7) After drying, the plates were stored at 4° C. and protected from light. Plates were used on the day of preparation.
(§8) The test organisms were grown overnight in 5 mL IST broth. Using a dilution in 0.9% saline of 1:500 for Gram-negative organisms and 1:100 for Gram-positive organisms, the appropriate agar plates were inoculated using a multipoint inoculator.
(§9) Plates were incubated at 37° C. in air for 18-20 hours.
(§10) The MIC is the minimum amount of an antibiotic at which there is no visible growth of bacteria. Tiny single colonies or faint hazes were not counted as growth.

[2] = system: Enterococcus faecalis (VRE) E8 VanA; assay: MIC, agar dilution (BSAC guidelines); conditions: E. faecalis (VRE) E8 VanA
Method: as §1, §2, §3, §4, §5, §6, §7, §8, §9, §10

[3] = system: Enterococcus faecium (VRE) E15 VanA ATCC 4147; assay: MIC, agar dilution (BSAC guidelines)
Method: as §1, §2, §3, §4, §5, §6, §7, §8, §9, §10

[4] = system: Enterococcus faecium (VRE) E19 UAA/522 VanB; assay: MIC, agar dilution (BSAC guidelines); conditions: E. faecium (VRE) E19 UAA/522 VanB
Method: as §1, §2, §3, §4, §5, §6, §7, §8, §9, §10

[5] = system: Enterococcus faecium (VRE) NCTC 7171; assay: MIC, agar dilution (BSAC guidelines)
Method: as §1, §2, §3, §4, §5, §6, §7, §8, §9, §10

[6] = system: Enterococcus faecium (VRE) VanR B145344C LFE; assay: MIC, agar dilution (BSAC guidelines); conditions: E. faecium (VRE) VanR B145344C LFE
Method: as §1, §2, §3, §4, §5, §6, §7, §8, §9, §10

[7] = system: Enterococcus gallinarum (VRE) E1 NCTC 12359 VanC1; assay: MIC, agar dilution (BSAC guidelines)
Method: as §1, §2, §3, §4, §5, §6, §7, §8, §9, §10

[8] = system: Escherichia coli NCTC 10418; assay: MIC, agar dilution (BSAC guidelines)
Method: as §1, §2, §3, §4, §5, §6, §7, §8, §9, §10

[9] = system: Klebsiella pneumoniae ESBL 700603; assay: MIC, agar dilution (BSAC guidelines)
Method: as §1, §2, §3, §4, §5, §6, §7, §8, §9, §10

[10] = system: Pseudomonas aeruginosa NCTC 10662; assay: MIC, agar dilution (BSAC guidelines)
Method: as §1, §2, §3, §4, §5, §6, §7, §8, §9, §10

[11] = system: Staphylococcus epidermidis ATCC 1228; assay: MIC, agar dilution (BSAC guidelines)
Method: as §1, §2, §3, §4, §5, §6, §7, §8, §9, §10

[12] = system: VISA, strain USA/VISA 5827; assay: MIC, agar dilution (BSAC guidelines); conditions: Staphylococcus aureus
Method: as §1, §2, §3, §4, §5, §6, §7, §8, §9, §10

[13] = system: VISA, strain USA/VISA 5836; assay: MIC, agar dilution (BSAC guidelines); conditions: Staphylococcus aureus
Method: as §1, §2, §3, §4, §5, §6, §7, §8, §9, §10

[14] = system: VISA, strain VISA 3900 UK; assay: MIC, agar dilution (BSAC guidelines); conditions: Staphylococcus aureus
Method: as §1, §2, §3, §4, §5, §6, §7, §8, §9, §10

[15] = system: Gram-negative organisms; assay: Growth inhibition, summary of MIC testing; conditions: summary in words
Method: as §1, §5, §8, §9, §10

[16] = system: strains of Staphylococci and Enterococci with reduced susceptibility to vancomycin; assay: Growth inhibition, summary of MIC testing; conditions: summary in words
Method: as §1, §5, §8, §9, §10

[17] = replicate 1, read-out: Minimum inhibitory concentration (MIC)
[18] = replicate 2, read-out: Minimum inhibitory concentration (MIC)
[19] = replicate 3, read-out: Minimum inhibitory concentration (MIC)

Clc1ccc(COC(Cn2ccnc2)c2ccc(Cl)cc2Cl)c(Cl)c1 (stereo not drawn) [Miconazole, 1-[2-(2,4-dichlorophenyl)-2-[(2,4-dichlorophenyl)methoxy]ethyl]-1H-imidazole]
MIC ([1]; ATCC19606, Acinetobacter Baumannii ATCC 19606, replicate 1, read-out: Minimum inhibitory concentration (MIC)): > 10 µg/mL
MIC ([1]; ATCC19606, Acinetobacter Baumannii ATCC 19606, replicate 2, read-out: Minimum inhibitory concentration (MIC)): > 6 µg/mL
MIC ([1]; ATCC19606, Acinetobacter Baumannii ATCC 19606, replicate 3, read-out: Minimum inhibitory concentration (MIC)): > 6 µg/mL
MIC [2, 17]: 5 µg/mL (≈ 12 µM)
MIC [2, 18]: > 6 µg/mL
MIC [2, 19]: > 6 µg/mL
MIC ([3]; E. faecium (VRE) E15 VanA ATCC 4147, replicate 1, read-out: Minimum inhibitory concentration (MIC)): 1.5 µg/mL (≈ 3.6 µM)
MIC ([3]; E. faecium (VRE) E15 VanA ATCC 4147, replicate 2, read-out: Minimum inhibitory concentration (MIC)): 3 µg/mL (≈ 7.21 µM)
MIC ([3]; E. faecium (VRE) E15 VanA ATCC 4147, replicate 3, read-out: Minimum inhibitory concentration (MIC)): 3 µg/mL (≈ 7.21 µM)
MIC [4, 17]: 1 µg/mL (≈ 2.4 µM)
MIC [4, 18]: 2.5 µg/mL (≈ 6.01 µM)
MIC [4, 19]: 2.5 µg/mL (≈ 6.01 µM)
MIC ([5]; E. faecium (VRE) NCTC 7171, replicate 1, read-out: Minimum inhibitory concentration (MIC)): 3.5 µg/mL (≈ 8.41 µM)
MIC ([5]; E. faecium (VRE) NCTC 7171, replicate 2, read-out: Minimum inhibitory concentration (MIC)): 6 µg/mL (≈ 14.4 µM)
MIC ([5]; E. faecium (VRE) NCTC 7171, replicate 3, read-out: Minimum inhibitory concentration (MIC)): 5.5 µg/mL (≈ 13.2 µM)
MIC [6, 17]: 2.5 µg/mL (≈ 6.01 µM)
MIC [6, 18]: 3 µg/mL (≈ 7.21 µM)
MIC [6, 19]: 2.5 µg/mL (≈ 6.01 µM)
MIC ([7]; E. gallinarum (VRE) E1 NCTC 12359 VanC1, replicate 1, read-out: Minimum inhibitory concentration (MIC)): 2 µg/mL (≈ 4.81 µM)
MIC ([7]; E. gallinarum (VRE) E1 NCTC 12359 VanC1, replicate 2, read-out: Minimum inhibitory concentration (MIC)): 3 µg/mL (≈ 7.21 µM)
MIC ([7]; E. gallinarum (VRE) E1 NCTC 12359 VanC1, replicate 3, read-out: Minimum inhibitory concentration (MIC)): 3.5 µg/mL (≈ 8.41 µM)
MIC ([8]; NCTC10418, E. coli NCTC 10418, replicate 1, read-out: Minimum inhibitory concentration (MIC)): > 10 µg/mL
MIC ([8]; NCTC10418, E. coli NCTC 10418, replicate 2, read-out: Minimum inhibitory concentration (MIC)): > 6 µg/mL
MIC ([8]; NCTC10418, E. coli NCTC 10418, replicate 3, read-out: Minimum inhibitory concentration (MIC)): > 6 µg/mL
MIC ([9]; ESBL700603, K. pneumoniae ESBL 700603, replicate 1, read-out: Minimum inhibitory concentration (MIC)): > 10 µg/mL
MIC ([9]; ESBL700603, K. pneumoniae ESBL 700603, replicate 2, read-out: Minimum inhibitory concentration (MIC)): > 6 µg/mL
MIC ([9]; ESBL700603, K. pneumoniae ESBL 700603, replicate 3, read-out: Minimum inhibitory concentration (MIC)): > 6 µg/mL
MIC ([10]; NCTC10662, P. aeruginosa NCTC 10662, replicate 1, read-out: Minimum inhibitory concentration (MIC)): > 10 µg/mL
MIC ([10]; NCTC10662, P. aeruginosa NCTC 10662, replicate 2, read-out: Minimum inhibitory concentration (MIC)): > 6 µg/mL
MIC ([10]; NCTC10662, P. aeruginosa NCTC 10662, replicate 3, read-out: Minimum inhibitory concentration (MIC)): > 6 µg/mL
MIC ([11]; ATCC1228, S. epidermidis ATCC 1228, replicate 1, read-out: Minimum inhibitory concentration (MIC)): 2.5 µg/mL (≈ 6.01 µM)
MIC ([11]; ATCC1228, S. epidermidis ATCC 1228, replicate 2, read-out: Minimum inhibitory concentration (MIC)): 2 µg/mL (≈ 4.81 µM)
MIC ([11]; ATCC1228, S. epidermidis ATCC 1228, replicate 3, read-out: Minimum inhibitory concentration (MIC)): 2 µg/mL (≈ 4.81 µM)
MIC [12, 17]: 1 µg/mL (≈ 2.4 µM)
MIC [12, 18]: 2 µg/mL (≈ 4.81 µM)
MIC [12, 19]: 1 µg/mL (≈ 2.4 µM)
MIC [13, 17]: 1 µg/mL (≈ 2.4 µM)
MIC [13, 18]: 2.5 µg/mL (≈ 6.01 µM)
MIC [13, 19]: 2.5 µg/mL (≈ 6.01 µM)
MIC [14, 17]: 1 µg/mL (≈ 2.4 µM)
MIC [14, 18]: 1.5 µg/mL (≈ 3.6 µM)
MIC [14, 19]: 2 µg/mL (≈ 4.81 µM)
activity against Gram-negative organisms [15]: no significant activity
activity against strains of Staphylococci and Enterococci with reduced susceptibility to vancomycin [16]: good activity
activity against strains of Staphylococci and Enterococci with reduced susceptibility to vancomycin ([16]; listed as miconazole): capable of inhibiting the growth
